Measurements reported in patent publication US8686224B2, “Plant defense signal peptides” (priority 2005, dated 2014).
Entries after “also recorded” stand apart in the source; their conditions may differ.

Columns and labels:
[1] = system: AtproPep1, MPK3 and WRKY gene expression; assay: Marker gene induction in two-week-old seedlings grown in liquid medium (RT-PCR, qRT-PCR); type: in vivo, Arabidopsis thaliana
Protocol: Using AtproPep1 and MPK3 as marker genes, the response to AtPep1 of the T-DNA insertional mutants was analyzed. […] […]1 and […]2 mutants are unable to respond to AtPEP1. To further examine the importance of […]1 and […]2 in AtPep1 signaling, the expression level of WRKY transcription factor genes, WRKY22, WRKY29, WRKY33. WRKY53 and WRKY55, were monitored by qRT-PCR after supplying AtPep1 to wild type Arabidopsis and T-DNA insertional mutants of […]1 and […]2. These WRKY genes were reported to be induced by the fungal PAMP, chitin (Wan et al., Plant Cell 20: 471-481, 2008), and the bacterial PAMPs, […] et al., Cell 125:749-760, 2006). […] In the double mutants, […] […] We also examined the effect of supplying AtPep1 to the double mutants on the expression of the antimicrobial protein genes, defensin (PDF1.2) and pathogenesis related protein (PR-1) […] peptides are known to induced these genes (Huffaker and Ryan, Proc. Natl. Acad. Sci. USA 104: 10732-10736, 2007). Since the expression levels of PDF1.2 and PR-1 gene in Arabidopsis seedlings grown in liquid medium were already high, the method of supplying AtPep1 was changed. Four-week-old Arabidopsis plants grown in soil were sprayed with 1 μM AtPep1 in 0.01% Silwet L-77, and subjected to qRT-PCR analysis after 6 hours.

[2] = system: defense gene expression in excised Arabidopsis leaves; assay: Excised-leaf assay, semi-quantitative RT-PCR of gene expression; type: in vivo, Arabidopsis thaliana
Protocol: Excised-leaf assays. AtPep1 peptide dissolved in double distilled water was supplied to excised leaves of 3 to 4 week old Arabidopsis plants. Leaves were excised and the petioles were immersed in 800 μL centrifuge tubes containing either the peptide solution or distilled water, and placed in a closed clear plexiglass box containing a thin layer of water for humidity, and a small opening to allow air to enter. Boxes were incubated in a growth chamber under the plant growth conditions described above and sprayed with a fine mist of distilled water every half hour to ensure humidity and prevent wilting. To determine variations in basal levels of the AtproPep1 transcript among assays, four different leaves from four different plants were used for each treatment, and leaves supplied with either water or AtPep1 were taken from the same plants. Assays were terminated by immersing the leaves in liquid nitrogen.
Semi-quantitative RT-PCR analysis of relative gene expression levels. RNA was isolated using Trizol reagent and manufacturer's instructions (Invitrogen. Carlsbad Calif.), and 2 μg of RNA template was reverse transcribed with a RETROscript kit (Ambion, Austin Tex.). PCR reactions were carried out with ExTaq Hot Start polymerase and reagents (Fisher Scientific, Pittsburgh Pa.). The AtproPep1 forward and reverse primers with the respective sequences of 5′ […] 3′ (SEQ ID NO: 59) and 5′ […] 3′ (SEQ ID NO: 60) generated a 310 bp intron-spanning product. Primers to β-tubulin (At5g62690) of 5′ […] 3′ (SEQ ID NO: 73) and 5′ […] 3′ (SEQ ID NO: 74) generated a 681 base pair intron-spanning product. An initial denaturing/polymerase activating step of 5 minutes at 94° C. was followed by 31 repetitions of the following three steps: a thirty second denaturation phase at 94° C., a thirty second annealing period at 55.5° C., and a one minute elongation step at 72° C. The amplification program was terminated with a 10 minute final 72° C. elongation phase.
The products of each reaction were separated by electrophoresis and were visualized on a Bio Imaging System (SynGene, Frederick Md.) using GeneSnap version 6.00.26 software (SynGene, Frederick Md.). A high resolution image of the gel was analyzed using GeneTools analysis software version 3.02.00 (SynGene, Frederick Md.). Relative band intensities for each band were normalized to the β-tubulin band. A numerical ratio of amplified AtproPep1 cDNA to amplified tubulin cDNA was obtained for every sample. To calculate average values, semi-quantitative RT-PCR assays were performed in duplicate, and RNA extractions were performed in triplicate.
Analysis of gene expression using RT-PCR. Gene expression was analyzed using RT-PCR (Nishimura et al., Plant Cell 16:1365-1377, 2004).
Expression analysis of AtproPep1 in response to abiotic and biotic cues. As a first step in seeking a possible function for AtproPep1 and its encoded peptide, the basal expression level of the gene was assessed in leaves, stems, roots and flowers of Arabidopsis plants was studied using semi-quantitative RT-PCR analysis of AtproPep1 gene expression in response to treatment of leaves with MeJA, ethephon, MeSA, and AtPep1. The relative abundance of the proAtPep1 transcript was estimated from the expression of the β-tubulin gene as a control. Leaves were wounded by crushing once across the mid-vein with a hemostat. Plants were sprayed with a 250 μM solution of MeJA in 0.1% Triton X-100; with a 2 μM solution of MeSA in 0.1% Triton X-100 or with a 7 mM solution of ethephon in 0.1% Triton X-100. AtPep1 peptide (10 nM in water) was supplied through cut petioles of excised leaves. Total RNA was extracted and analyzed.
In order to determine whether AtPep1 regulates defense gene expression, we determined the fold induction of defense related genes in excised Arabidopsis leaves in response to 10 nM AtPep1 supplied through their cut petioles. […]

## H-ATKVKAKQRGKEKVSSGRPGQHN-OH [AtPep1]
[1]; 10 nM for 30 min
  response (AtproPep1, MPK3) in double mutants of AtPEPR1 and AtPEPR2: completely lost the response
[1]; 10 nM for 30 min, SALK_036564 and SALK_004447
  response (AtproPep1, MPK3) in AtPEPR2 mutants: did not show the clear reduction
[1]; 10 nM for 30 min, SALK_059281 and SALK_014538
  reduction of AtproPep1 and MPK3 induction in AtPEPR1 mutants: > 50%
[1]; 10 nM, 30 min
  WRKY responses in double mutants pepr1-1/pepr2-1 and pepr1-2/pepr2-2: completely abolished
  lower induction of WRKY genes in pepr1-1 and pepr1-2: 50%
[1]; 10 nM, 30 min, wild type
  induction of WRKY33, WRKY53, WRKY22, WRKY29 and WRKY55: highly induced
[2]; 10 nM through cut petioles of excised leaves, within two hours
  expression of the AtproPep1 gene: induced expression
[2]; 10 nM through cut petioles, 2 hr, wild type
  expression of PDF1.2 and PR-1: most strongly expressed; also recorded: induced a strong expression
[2]; 10 nM, 2 hr, triple mutant fad3-2, fad7-2, fad8 and mutant ein2-1
  expression of AtproPep1, PDF1.2 or PR-1 in mutants: did not induce
[2]; 10 nM, two hours, wild type
  expression of LOX2 and VSP2: not induced
  expression of PR-3, PR-4 and TAT: expressed at lower levels
[2]; supplied through cut petioles of excised leaves
  expression of At5g64905, At5g64900, At5g64890 and At5g09980: expressed relatively strongly
